Assay results reported in BindingDB's records for PubMed 11082453 (Abbott Laboratories, 2000).

How the values were obtained:
[1] = target: 5-hydroxytryptamine receptor 7 (Rattus norvegicus, UniProt P32305)
[2] = target: Endothelin-1 receptor (Rattus norvegicus, UniProt P26684)
[3] = target: Muscarinic acetylcholine receptor M4 (Rattus norvegicus, UniProt P08485)
[4] = target: Calcium release-activated calcium channel protein 1 (Homo sapiens, UniProt Q96D31)
[5] = target: Alpha-2C adrenergic receptor (Rattus norvegicus, UniProt P22086)
[6] = target: Prostaglandin G/H synthase 2 (Rattus norvegicus, UniProt P35355)
[7] = target: 5-hydroxytryptamine receptor 3A (Rattus norvegicus, UniProt P35563)
[8] = target: 5-hydroxytryptamine receptor 5A (Rattus norvegicus, UniProt P35364)
[9] = target: D(2) dopamine receptor (Rattus norvegicus, UniProt P61169)
[10] = target: D(3) dopamine receptor (Rattus norvegicus, UniProt P19020)
[11] = target: Vasopressin V2 receptor (Rattus norvegicus, UniProt Q00788)
[12] = target: Cannabinoid receptor 2 (Rattus norvegicus, UniProt Q9QZN9)
[13] = target: Vasopressin V1a receptor (Rattus norvegicus, UniProt P30560)
[14] = target: Neuropeptide Y receptor type 2 (Rattus norvegicus, UniProt Q9ERC0)
[15] = target: Muscarinic acetylcholine receptor M5 (Rattus norvegicus, UniProt P08911)
[16] = target: Substance-P receptor (Rattus norvegicus, UniProt P14600)
[17] = target: Voltage-dependent L-type calcium channel subunit alpha-1C (Rattus norvegicus, UniProt P22002)
[18] = target: Gamma-aminobutyric acid (GABA) B receptor 1 (Rattus norvegicus, UniProt Q6MFX8)
[19] = target: Thromboxane A2 receptor (Rattus norvegicus, UniProt P34978)
[20] = target: Prostacyclin receptor (Rattus norvegicus, UniProt P43253)
[21] = target: Norepinephrine transporter (Rattus norvegicus, UniProt Q9JIA2)
[22] = target: Gastrin/cholecystokinin type B receptor (Rattus norvegicus, UniProt P30553)
[23] = target: Galanin peptides (Rattus norvegicus, UniProt P10683)
[24] = target: Glutamate receptor ionotropic, kainate 1 (Rattus norvegicus, UniProt P22756)
[25] = target: D(4) dopamine receptor (Rattus norvegicus, UniProt P30729)
[26] = target: Bombesin receptor subtype-3 (Rattus norvegicus, UniProt Q8K418)
[27] = target: Melatonin receptor type 1A (Rattus norvegicus, UniProt P49218)
[28] = target: Prostaglandin G/H synthase 1 (Rattus norvegicus, UniProt Q63921)
[29] = target: Alpha-1A adrenergic receptor (Rattus norvegicus, UniProt P43140)
[30] = target: 5-hydroxytryptamine receptor 6 (Rattus norvegicus, UniProt P31388)
[31] = target: Cannabinoid receptor 1 (Rattus norvegicus, UniProt P20272)
[32] = target: Histamine H2 receptor (Rattus norvegicus, UniProt P25102)
[33] = target: Substance-K receptor (Rattus norvegicus, UniProt P16610)
[34] = target: 5'-nucleotidase (Rattus norvegicus, UniProt P21588)
[35] = target: Kappa-type opioid receptor (Rattus norvegicus, UniProt P34975)
[36] = target: Chloride channel protein 1 (Rattus norvegicus, UniProt P35524)
[37] = target: Amine oxidase [flavin-containing] B (Rattus norvegicus, UniProt P19643)
[38] = target: Pro-neuropeptide Y (Rattus norvegicus, UniProt P07808)
[39] = target: Interleukin-1 alpha (Rattus norvegicus, UniProt P16598)
[40] = target: Beta-1 adrenergic receptor (Rattus norvegicus, UniProt P18090)
Sequence of Beta-1 adrenergic receptor (P18090 whole entry): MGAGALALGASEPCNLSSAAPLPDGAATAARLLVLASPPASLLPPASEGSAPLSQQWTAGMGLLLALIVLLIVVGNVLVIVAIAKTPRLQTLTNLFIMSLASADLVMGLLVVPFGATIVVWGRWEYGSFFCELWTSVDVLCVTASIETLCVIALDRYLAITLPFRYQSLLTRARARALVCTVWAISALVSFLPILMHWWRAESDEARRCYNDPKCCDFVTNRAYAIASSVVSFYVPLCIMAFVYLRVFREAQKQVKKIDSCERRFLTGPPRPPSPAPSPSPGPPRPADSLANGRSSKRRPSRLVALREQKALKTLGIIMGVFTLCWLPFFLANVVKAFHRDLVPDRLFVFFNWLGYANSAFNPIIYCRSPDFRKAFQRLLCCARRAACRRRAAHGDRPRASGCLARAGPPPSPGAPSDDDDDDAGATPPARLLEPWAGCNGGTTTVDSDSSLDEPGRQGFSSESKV

Sequence of Substance-K receptor (P16610 whole entry): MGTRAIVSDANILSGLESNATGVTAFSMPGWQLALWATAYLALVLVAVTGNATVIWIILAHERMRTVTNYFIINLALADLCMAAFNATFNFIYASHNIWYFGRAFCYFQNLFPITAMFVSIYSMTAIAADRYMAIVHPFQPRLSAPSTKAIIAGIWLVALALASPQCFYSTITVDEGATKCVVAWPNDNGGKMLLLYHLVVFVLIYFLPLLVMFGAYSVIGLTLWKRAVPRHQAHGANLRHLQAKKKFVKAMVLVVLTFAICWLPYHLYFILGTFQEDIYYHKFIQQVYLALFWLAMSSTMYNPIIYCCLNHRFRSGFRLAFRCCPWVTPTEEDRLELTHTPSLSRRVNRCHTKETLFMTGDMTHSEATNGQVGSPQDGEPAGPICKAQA
Sequence of D(3) dopamine receptor (P19020 whole entry): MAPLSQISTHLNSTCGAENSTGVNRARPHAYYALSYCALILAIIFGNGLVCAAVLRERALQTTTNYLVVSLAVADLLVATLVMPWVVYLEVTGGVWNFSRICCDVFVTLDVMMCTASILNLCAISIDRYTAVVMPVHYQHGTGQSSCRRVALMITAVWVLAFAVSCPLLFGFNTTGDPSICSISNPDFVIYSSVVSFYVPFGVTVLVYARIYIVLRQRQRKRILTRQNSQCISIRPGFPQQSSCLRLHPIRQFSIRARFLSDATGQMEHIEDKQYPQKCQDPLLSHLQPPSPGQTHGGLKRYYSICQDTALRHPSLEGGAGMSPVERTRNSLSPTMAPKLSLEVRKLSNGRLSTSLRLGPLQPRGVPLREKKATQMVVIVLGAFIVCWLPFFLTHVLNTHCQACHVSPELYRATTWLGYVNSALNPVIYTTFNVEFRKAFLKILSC
Sequence of 5-hydroxytryptamine receptor 5A (P35364 whole entry): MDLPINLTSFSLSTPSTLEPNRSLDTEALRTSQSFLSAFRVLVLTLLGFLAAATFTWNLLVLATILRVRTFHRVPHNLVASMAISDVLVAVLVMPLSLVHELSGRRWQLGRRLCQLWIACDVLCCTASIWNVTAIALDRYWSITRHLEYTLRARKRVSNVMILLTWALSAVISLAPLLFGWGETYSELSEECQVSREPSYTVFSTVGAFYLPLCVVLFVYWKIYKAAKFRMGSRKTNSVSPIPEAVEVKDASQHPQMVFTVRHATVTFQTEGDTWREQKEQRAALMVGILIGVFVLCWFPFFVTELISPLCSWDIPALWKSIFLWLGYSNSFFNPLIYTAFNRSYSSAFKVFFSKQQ
Sequence of Melatonin receptor type 1A (P49218 whole entry): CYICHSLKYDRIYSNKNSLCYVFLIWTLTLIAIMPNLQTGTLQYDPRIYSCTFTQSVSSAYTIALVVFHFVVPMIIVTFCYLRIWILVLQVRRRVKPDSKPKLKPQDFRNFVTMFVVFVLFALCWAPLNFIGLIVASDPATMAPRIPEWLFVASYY
Sequence of Amine oxidase [flavin-containing] B (P19643 whole entry): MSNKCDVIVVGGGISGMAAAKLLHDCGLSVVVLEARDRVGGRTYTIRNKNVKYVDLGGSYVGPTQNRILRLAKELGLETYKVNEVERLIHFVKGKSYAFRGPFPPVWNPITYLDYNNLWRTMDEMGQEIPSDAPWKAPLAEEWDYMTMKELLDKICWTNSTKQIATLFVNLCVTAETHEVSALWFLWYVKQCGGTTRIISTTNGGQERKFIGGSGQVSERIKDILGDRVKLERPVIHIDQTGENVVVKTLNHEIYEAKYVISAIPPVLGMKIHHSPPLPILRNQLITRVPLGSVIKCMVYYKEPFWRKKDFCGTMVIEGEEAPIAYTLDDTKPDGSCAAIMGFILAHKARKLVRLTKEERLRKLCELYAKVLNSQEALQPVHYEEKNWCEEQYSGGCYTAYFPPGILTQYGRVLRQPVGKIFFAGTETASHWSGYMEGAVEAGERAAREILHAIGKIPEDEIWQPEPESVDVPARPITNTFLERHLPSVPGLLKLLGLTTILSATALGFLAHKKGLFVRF
Sequence of Muscarinic acetylcholine receptor M4 (P08485 as listed by the source): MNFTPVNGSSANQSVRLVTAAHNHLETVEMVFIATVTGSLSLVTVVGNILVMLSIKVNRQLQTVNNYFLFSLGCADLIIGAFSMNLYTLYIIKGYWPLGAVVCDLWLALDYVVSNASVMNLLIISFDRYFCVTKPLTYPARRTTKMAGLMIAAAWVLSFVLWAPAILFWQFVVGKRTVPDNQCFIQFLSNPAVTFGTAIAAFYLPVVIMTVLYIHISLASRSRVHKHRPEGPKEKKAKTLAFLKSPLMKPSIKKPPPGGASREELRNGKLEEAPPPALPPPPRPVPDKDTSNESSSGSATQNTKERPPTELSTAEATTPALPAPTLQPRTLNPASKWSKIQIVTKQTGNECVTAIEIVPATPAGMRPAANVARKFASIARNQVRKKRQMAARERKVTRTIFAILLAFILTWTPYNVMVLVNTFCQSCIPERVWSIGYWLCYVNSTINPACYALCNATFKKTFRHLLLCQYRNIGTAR
Sequence of Histamine H2 receptor (P25102 whole entry): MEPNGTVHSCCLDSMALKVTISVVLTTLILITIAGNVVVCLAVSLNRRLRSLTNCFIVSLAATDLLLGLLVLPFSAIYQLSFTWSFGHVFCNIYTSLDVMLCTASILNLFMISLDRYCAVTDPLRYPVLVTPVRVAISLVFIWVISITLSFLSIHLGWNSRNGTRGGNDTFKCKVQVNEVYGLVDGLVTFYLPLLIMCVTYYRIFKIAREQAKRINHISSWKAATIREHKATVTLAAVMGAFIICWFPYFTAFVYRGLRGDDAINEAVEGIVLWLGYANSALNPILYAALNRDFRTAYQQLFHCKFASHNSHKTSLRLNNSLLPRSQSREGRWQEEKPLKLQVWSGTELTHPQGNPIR
Sequence of Thromboxane A2 receptor (P34978 whole entry): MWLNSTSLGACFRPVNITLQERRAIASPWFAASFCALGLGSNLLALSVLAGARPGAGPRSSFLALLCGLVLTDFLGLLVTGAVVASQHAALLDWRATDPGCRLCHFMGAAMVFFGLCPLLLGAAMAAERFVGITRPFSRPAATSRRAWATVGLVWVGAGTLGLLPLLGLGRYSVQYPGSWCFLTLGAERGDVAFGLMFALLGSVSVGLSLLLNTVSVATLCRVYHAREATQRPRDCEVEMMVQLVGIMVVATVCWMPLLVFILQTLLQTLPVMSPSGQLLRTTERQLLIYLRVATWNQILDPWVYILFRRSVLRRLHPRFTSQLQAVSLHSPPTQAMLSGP
Sequence of Muscarinic acetylcholine receptor M5 (P08911 whole entry): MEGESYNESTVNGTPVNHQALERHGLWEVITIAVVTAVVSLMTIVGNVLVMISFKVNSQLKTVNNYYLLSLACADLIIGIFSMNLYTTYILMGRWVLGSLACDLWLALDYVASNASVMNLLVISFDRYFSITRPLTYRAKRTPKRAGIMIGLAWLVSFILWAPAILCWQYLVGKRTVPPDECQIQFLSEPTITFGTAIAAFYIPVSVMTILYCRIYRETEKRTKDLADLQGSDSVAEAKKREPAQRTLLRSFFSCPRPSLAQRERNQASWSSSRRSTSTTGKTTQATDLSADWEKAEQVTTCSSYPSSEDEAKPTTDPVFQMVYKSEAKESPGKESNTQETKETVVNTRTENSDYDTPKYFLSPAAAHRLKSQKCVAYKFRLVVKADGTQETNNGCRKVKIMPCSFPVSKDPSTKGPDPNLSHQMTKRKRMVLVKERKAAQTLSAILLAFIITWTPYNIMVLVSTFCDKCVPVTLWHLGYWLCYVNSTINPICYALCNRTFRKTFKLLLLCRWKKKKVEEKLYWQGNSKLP
Sequence of Cannabinoid receptor 2 (Q9QZN9 whole entry): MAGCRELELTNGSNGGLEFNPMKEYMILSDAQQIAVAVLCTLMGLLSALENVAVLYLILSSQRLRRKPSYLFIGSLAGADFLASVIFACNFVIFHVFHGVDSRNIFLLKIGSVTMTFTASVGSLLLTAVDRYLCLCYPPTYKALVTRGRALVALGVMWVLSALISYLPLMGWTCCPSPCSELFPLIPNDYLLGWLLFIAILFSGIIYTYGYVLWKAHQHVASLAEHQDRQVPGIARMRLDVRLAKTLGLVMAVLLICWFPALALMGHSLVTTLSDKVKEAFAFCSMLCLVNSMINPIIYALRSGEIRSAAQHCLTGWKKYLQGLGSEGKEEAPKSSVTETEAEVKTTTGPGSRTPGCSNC
Sequence of Alpha-2C adrenergic receptor (P22086 whole entry): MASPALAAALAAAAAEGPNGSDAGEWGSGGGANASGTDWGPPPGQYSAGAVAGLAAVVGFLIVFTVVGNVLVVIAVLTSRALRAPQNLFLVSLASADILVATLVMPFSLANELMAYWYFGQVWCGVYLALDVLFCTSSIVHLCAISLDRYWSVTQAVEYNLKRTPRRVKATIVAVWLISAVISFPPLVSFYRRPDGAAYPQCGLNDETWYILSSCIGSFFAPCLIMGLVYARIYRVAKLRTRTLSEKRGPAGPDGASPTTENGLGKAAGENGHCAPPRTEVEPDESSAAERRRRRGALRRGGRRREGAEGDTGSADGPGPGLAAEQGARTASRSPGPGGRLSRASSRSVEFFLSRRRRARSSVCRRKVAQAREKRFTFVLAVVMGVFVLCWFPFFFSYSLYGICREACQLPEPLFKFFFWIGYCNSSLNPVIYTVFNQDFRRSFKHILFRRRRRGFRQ

Ki [1]: > 10 µM | Ki [2]: > 10 µM | Ki [3]: > 10 µM | Ki [4]: > 10 µM | Ki [5]: > 10 µM | Ki [6]: > 10 µM | Ki [7]: > 10 µM | Ki [8]: > 10 µM | Ki [9]: > 10 µM | Ki [10]: > 10 µM | Ki [11]: > 10 µM | Ki [12]: > 10 µM | Ki [13]: > 10 µM | Ki [14]: > 10 µM | Ki [15]: > 10 µM | Ki [16]: > 10 µM | Ki [17]: > 10 µM | Ki [18]: > 10 µM | Ki [19]: > 10 µM | Ki [20]: > 10 µM | Ki [21]: > 10 µM | Ki [22]: > 10 µM | Ki [23]: > 10 µM | Ki [24]: > 10 µM | Ki [25]: > 10 µM | Ki [26]: > 10 µM | Ki [27]: > 10 µM | Ki [28]: > 10 µM | Ki [29]: > 10 µM | Ki [30]: > 10 µM | Ki [31]: > 10 µM | Ki [32]: > 10 µM | Ki [33]: 8.56 µM | Ki [34]: > 10 µM | Ki [35]: 4.6 µM | Ki [36]: > 10 µM | Ki [37]: > 10 µM | Ki [38]: > 10 µM | Ki [39]: > 10 µM | Ki [40]: > 10 µM
Compound: Nc1ncnc2nc(-c3ccc(N4CCOCC4)nc3)cc(-c3cccc(Br)c3)c12
